Experimental data published in ChEMBL document CHEMBL4130350, “Discovery, mechanism and metabolism studies of 2,3-difluorophenyl-linker-containing PARP1 inhibitors with enhanced in vivo efficacy for cancer therapy” (Eur J Med Chem, 2017).

Legend:
[1] = target: T1, Poly [ADP-ribose] polymerase 1 (Homo sapiens, UniProt P09874); experiment: Inhibition of PARP1 (unknown origin) by ELISA
V79 = experiment: Cytotoxicity against BRCA2 expressing Chinese hamster V79 cells after 3 days by CCK8 or SRB assay; assay type: cell-based; conditions: Cricetulus griseus, V79, 72 h
[2] = target: T1, Poly [ADP-ribose] polymerase 1; experiment: Inhibition of PARP1 in BRCA1 deficient human MDA-MB-436 cells assessed as increase in DNA double stranded breaks by measuring gammaH2AX levels after 48 hrs by Western blot analysis; assay type: cell-based
CAPAN-1 [3] = experiment: Cell cycle arrest in human Capan1 cells assessed as accumulation at S phase at 0.1 uM after 72 hrs by propidium iodide-staining based flow cytometry (reference value: 21.42%); assay type: functional
CAPAN-1 [4] = experiment: Cell cycle arrest in human Capan1 cells assessed as accumulation at G0/G1 phase at 1 uM after 72 hrs by propidium iodide-staining based flow cytometry (reference value: 63.33%); assay type: functional
CAPAN-1 [5] = experiment: Cell cycle arrest in human Capan1 cells assessed as accumulation at G0/G1 phase at 10 uM after 72 hrs by propidium iodide-staining based flow cytometry (reference value: 63.33%); assay type: functional
CAPAN-1 [6] = experiment: Cell cycle arrest in human Capan1 cells assessed as accumulation at S phase at 10 uM after 72 hrs by propidium iodide-staining based flow cytometry (reference value: 21.42%); assay type: functional
MDA-MB-436 [7] = experiment: Induction of apoptosis in human MDA-MB-436 cells assessed as late apoptotic cells at 0.1 uM after 96 hrs by Annexin V-FITC/propidium iodide double-staining based flow cytometery (reference value: 5.61%); assay type: functional
MDA-MB-436 [8] = experiment: Induction of apoptosis in human MDA-MB-436 cells assessed as early apoptotic cells at 1 uM after 96 hrs by Annexin V-FITC/propidium iodide double-staining based flow cytometery (reference value: 1.90%); assay type: functional
MDA-MB-436 [9] = experiment: Induction of apoptosis in human MDA-MB-436 cells assessed as early apoptotic cells at 1 uM after 96 hrs in presence of pancaspase inhibitor Z-VAD-FMK by Annexin V-FITC/propidium iodide double-staining based flow cytometery (reference value: 2.32%); assay type: functional
CAPAN-1 [10] = experiment: Antiproliferative activity against human Capan1 cells after 7 days by CCK8 or SRB assay; assay type: functional, cell-based; conditions: CAPAN-1, 168 h
MDA-MB-436 [11] = experiment: Antitumor activity against human MDA-MB-436 cells harboring BRCA1 mutant xenografted in nude BALB/cA mouse assessed as tumor growth inhibition at 50 mg/kg, po administered once daily for 21 consecutive days measured twice per week; assay type: functional; conditions: MDA-MB-436, po, read-out: TGI
[12] = Volume of distribution in Sprague-Dawley rat at 5 mg/kg, iv by LC-MS/MS analysis; assay type: ADME, organism-based; conditions: in vivo
[13] = Cmax in Sprague-Dawley rat at 10 mg/kg, po by LC-MS/MS analysis; assay type: ADME, organism-based; design: dose 10 mg/kg, route oral; conditions: in vivo
[14] = AUC in Sprague-Dawley rat at 5 mg/kg, iv by LC-MS/MS analysis; assay type: ADME, organism-based; conditions: in vivo
[15] = Stability in mouse plasma at 1 uM up to 60 mins by LC-MS/MS analysis; assay type: ADME, cell-free; conditions: read-out: Stability
[16] = Elimination half-life in mouse liver microsomes at 2 uM up to 60 mins by LC-MS/MS analysis; assay type: ADME, microsome; conditions: read-out: beta t1/2
[17] = Apparent permeability across basolateral to apical side in human Caco2 cells after 2 hrs by LC-MS/MS analysis; assay type: ADME, cell-based; conditions: Caco-2
[18] = Apparent permeability across apical to basolateral side in human Caco2 cells assessed as drug recovery at 4701.8 pmol after 2 hrs by LC-MS/MS analysis; assay type: ADME, cell-based; conditions: Caco-2, read-out: Drug recovery
[19] = Apparent permeability across basolateral to apical side in human Caco2 cells assessed as drug recovery at 16870 pmol after 2 hrs by LC-MS/MS analysis; assay type: ADME, cell-based; conditions: Caco-2, read-out: Drug recovery
[20] = Drug metabolism in mouse liver microsomes assessed as dehydrogenation at 2 uM up to 60 mins in presence of NADPH by LC-MS/MS analysis; assay type: ADME, microsome; conditions: 1 h
[21] = target: T1, Poly [ADP-ribose] polymerase 1; experiment: Inhibition of PARP1 in BRCA2 deficient human Capan1 cells assessed as increase in DNA double stranded breaks by measuring gammaH2AX levels after 72 hrs by Western blot analysis
[22] = Retention time in mouse liver microsomes at 2 uM up to 60 mins in presence of NADPH by LC-MS/MS analysis; assay type: ADME, microsome; conditions: 1 h

T1 sequence (P09874 whole entry): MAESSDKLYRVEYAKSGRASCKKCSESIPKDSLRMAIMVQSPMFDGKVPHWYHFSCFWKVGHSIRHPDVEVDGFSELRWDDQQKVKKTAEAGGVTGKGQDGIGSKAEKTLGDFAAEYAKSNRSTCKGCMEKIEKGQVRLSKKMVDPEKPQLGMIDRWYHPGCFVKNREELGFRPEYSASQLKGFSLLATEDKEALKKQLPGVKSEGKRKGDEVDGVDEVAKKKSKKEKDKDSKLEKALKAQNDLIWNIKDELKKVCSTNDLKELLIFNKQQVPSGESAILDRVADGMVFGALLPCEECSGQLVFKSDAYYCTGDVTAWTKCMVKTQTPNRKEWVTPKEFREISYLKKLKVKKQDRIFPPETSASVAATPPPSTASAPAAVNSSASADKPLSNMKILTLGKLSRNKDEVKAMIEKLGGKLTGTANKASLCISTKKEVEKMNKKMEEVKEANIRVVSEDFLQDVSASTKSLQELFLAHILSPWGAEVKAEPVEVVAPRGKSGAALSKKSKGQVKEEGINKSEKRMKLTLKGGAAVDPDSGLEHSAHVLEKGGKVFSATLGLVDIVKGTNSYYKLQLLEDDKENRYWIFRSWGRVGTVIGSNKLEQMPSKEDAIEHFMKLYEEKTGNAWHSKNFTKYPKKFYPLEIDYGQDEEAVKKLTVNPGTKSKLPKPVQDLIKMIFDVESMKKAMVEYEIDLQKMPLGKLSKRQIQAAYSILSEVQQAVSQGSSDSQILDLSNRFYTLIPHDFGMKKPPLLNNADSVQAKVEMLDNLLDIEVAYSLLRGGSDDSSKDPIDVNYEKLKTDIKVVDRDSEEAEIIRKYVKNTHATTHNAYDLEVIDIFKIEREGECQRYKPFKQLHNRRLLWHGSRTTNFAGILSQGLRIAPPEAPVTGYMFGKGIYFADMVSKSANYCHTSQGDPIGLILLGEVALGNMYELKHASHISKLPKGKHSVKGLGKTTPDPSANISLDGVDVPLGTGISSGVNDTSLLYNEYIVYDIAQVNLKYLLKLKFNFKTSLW

With N#Cc1cccnc1N1CCN(C(=O)c2cc(Cc3n[nH]c(=O)c4ccccc34)cc(F)c2F)CC1 the IC50 [1] was 1.3 nM, the IC50 (V79) was 10000 to 10300 nM and the inhibition [2] was “Dose-dependent effect”. The Activity (CAPAN-1 [3]) was 26.75%, the Activity (CAPAN-1 [4]) was 22.38% and the Activity (CAPAN-1 [5]) was 5.15%. For the same compound, the Activity (CAPAN-1 [6]) was 22.4%, the Activity (MDA-MB-436 [7]) was 29.32% and the Activity (MDA-MB-436 [8]) was 7.09%. For the same compound, the Activity (MDA-MB-436 [9]) was 6.61%, the IC50 (CAPAN-1 [10]) was 7.1 nM and the inhibition in vivo at 50 mg/kg (MDA-MB-436 [11]) was 94.2%. For the same compound, the Vd [12] was 27.5 L/kg, the Cmax [13] was 74.4 ng/mL and the AUC [14] was 1380 ng·h/mL. For the same compound, the remaining at 1 h, 1 µM [15] was 105%, the half-life at 2 µM [16] was 3 min and the Papp B→A at 2 h [17] was 34.1 ×10⁻⁶ cm/s. The recovery at 2 h [18] was 91.5%, the recovery at 2 h [19] was 109% and the Drug metabolism [20] was “Metabolite_Detected”. The inhibition [21] was “Dose-dependent effect” and the Retention_time [22] was 7.8 min.
